# Assay results published in the supplement of paper PMC10307832.
# What was measured:
# Assay in all cases: relative viability (nuclei count vs DMSO), 5 days (fraction); higher = more cells survive
# NCI-H1651 = system: NCI-H1651
# Outline: (§1)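 Nuclei were stained with Hoechst during a one-step fixation (final 0.05% Triton X-100, 1% formaldehyde, 1 ug/ml Hoechst) carried out 5 days after dosing, then counted on 4× images. The cells, lung cancer lines in 1536-well plates, had been dosed by pin tool the day after seeding with one drug alone or a fixed anchor-drug dose plus five library-drug doses (not always all listed) in √10 steps. Relative viability is the nuclei count in treated wells divided by that in vehicle wells, and each value is the median of duplicate plates.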
# LC-2-ad = system: LC-2-ad
# Outline: as §1
# NCI-H1734 = system: NCI-H1734
# Outline: as §1
# EPLC-272H = system: EPLC-272H
# Outline: as §1
# ChaGo-K-1 = system: ChaGo-K-1
# Outline: as §1
# NCI-H2170 = system: NCI-H2170
# Outline: as §1
# LU99A = system: LU99A
# Outline: as §1
# NCI-H2405 = system: NCI-H2405
# Outline: as §1
# NCI-H1395 = system: NCI-H1395
# Outline: as §1
# NCI-H1793 = system: NCI-H1793
# Outline: as §1
# ABC-1 = system: ABC-1
# Outline: as §1
# NCI-H460 = system: NCI-H460
# Outline: as §1
# PC-3 [JPC-3] = system: PC-3 [JPC-3]
# Outline: as §1
# NCI-H3122 = system: NCI-H3122
# Outline: as §1
# NCI-H2087 = system: NCI-H2087
# Outline: as §1
# NCI-H1944 = system: NCI-H1944
# Outline: as §1
# LOU-NH91 = system: LOU-NH91
# Outline: as §1
# HCC-78 = system: HCC-78
# Outline: as §1
# RERF-LC-KJ = system: RERF-LC-KJ
# Outline: as §1
# NCI-H1755 = system: NCI-H1755
# Outline: as §1
# UMC-11 = system: UMC-11
# Outline: as §1
# HCC-366 = system: HCC-366
# Outline: as §1
structure (smiles),measurement,setting,value
C[C@@H]1CN(CC(=O)Nc2ccc3c(c2)Cc2cccc(-c4cc(=O)cc(N5CCOCC5)o4)c2S3)C[C@H](C)O1 + Nc1ncn([C@H]2C[C@H](O)[C@@H](CO)O2)c(=O)n1 [Decitabine] (partner 2 µM),relative viability,NCI-H1651; first compound 0.04 µM,0.628
same,relative viability,NCI-H1651; first compound 0.1265 µM,0.628
same,relative viability,NCI-H1651; first compound 0.4 µM,0.585
same,relative viability,NCI-H1651; first compound 4 µM,0.599
same,relative viability,LC-2-ad; first compound 0.04 µM,0.939
same,relative viability,LC-2-ad; first compound 0.1265 µM,0.786
same,relative viability,LC-2-ad; first compound 0.4 µM,0.792
same,relative viability,LC-2-ad; first compound 4 µM,0.628
same,relative viability,NCI-H1734; first compound 0.04 µM,0.567
same,relative viability,NCI-H1734; first compound 0.1265 µM,0.507
same,relative viability,NCI-H1734; first compound 0.4 µM,0.474
same,relative viability,NCI-H1734; first compound 4 µM,0.574
same,relative viability,EPLC-272H; first compound 0.04 µM,0.386
same,relative viability,EPLC-272H; first compound 0.1265 µM,0.384
same,relative viability,EPLC-272H; first compound 0.4 µM,0.394
same,relative viability,EPLC-272H; first compound 4 µM,0.364
same,relative viability,ChaGo-K-1; first compound 0.04 µM,0.498
same,relative viability,ChaGo-K-1; first compound 0.1265 µM,0.531
same,relative viability,ChaGo-K-1; first compound 0.4 µM,0.56
same,relative viability,ChaGo-K-1; first compound 4 µM,0.455
same,relative viability,NCI-H2170; first compound 0.04 µM,0.492
same,relative viability,NCI-H2170; first compound 0.1265 µM,0.459
same,relative viability,NCI-H2170; first compound 0.4 µM,0.508
same,relative viability,NCI-H2170; first compound 4 µM,0.464
same,relative viability,LU99A; first compound 0.04 µM,0.815
same,relative viability,LU99A; first compound 0.1265 µM,0.928
same,relative viability,LU99A; first compound 0.4 µM,0.859
same,relative viability,LU99A; first compound 4 µM,0.851
same,relative viability,NCI-H2405; first compound 0.04 µM,0.878
same,relative viability,NCI-H2405; first compound 0.1265 µM,0.814
same,relative viability,NCI-H2405; first compound 0.4 µM,0.728
same,relative viability,NCI-H2405; first compound 4 µM,0.803
same,relative viability,NCI-H1395; first compound 0.1265 µM,0.763
same,relative viability,NCI-H1395; first compound 0.4 µM,0.653
same,relative viability,NCI-H1395; first compound 4 µM,0.752
same,relative viability,NCI-H1793; first compound 0.04 µM,0.536
same,relative viability,NCI-H1793; first compound 0.1265 µM,0.552
same,relative viability,NCI-H1793; first compound 0.4 µM,0.503
same,relative viability,NCI-H1793; first compound 4 µM,0.526
same,relative viability,ABC-1; first compound 0.04 µM,0.303
same,relative viability,ABC-1; first compound 0.1265 µM,0.897
same,relative viability,ABC-1; first compound 0.4 µM,0.947
same,relative viability,ABC-1; first compound 4 µM,1.48
same,relative viability,NCI-H460; first compound 0.04 µM,0.401
same,relative viability,NCI-H460; first compound 0.1265 µM,0.466
same,relative viability,NCI-H460; first compound 0.4 µM,0.379
same,relative viability,NCI-H460; first compound 4 µM,0.335
same,relative viability,PC-3 [JPC-3]; first compound 0.04 µM,0.789
same,relative viability,PC-3 [JPC-3]; first compound 0.1265 µM,0.841
same,relative viability,PC-3 [JPC-3]; first compound 0.4 µM,0.854
same,relative viability,PC-3 [JPC-3]; first compound 4 µM,0.781
same,relative viability,NCI-H3122; first compound 0.04 µM,0.423
same,relative viability,NCI-H3122; first compound 0.1265 µM,0.396
same,relative viability,NCI-H3122; first compound 0.4 µM,0.42
same,relative viability,NCI-H3122; first compound 4 µM,0.436
same,relative viability,NCI-H2087; first compound 0.04 µM,0.306
same,relative viability,NCI-H2087; first compound 0.1265 µM,0.336
same,relative viability,NCI-H2087; first compound 0.4 µM,0.267
same,relative viability,NCI-H2087; first compound 4 µM,0.254
same,relative viability,NCI-H1944; first compound 0.1265 µM,0.438
same,relative viability,NCI-H1944; first compound 0.4 µM,0.466
same,relative viability,NCI-H1944; first compound 4 µM,0.457
same,relative viability,LOU-NH91; first compound 0.04 µM,0.857
same,relative viability,LOU-NH91; first compound 0.1265 µM,0.819
same,relative viability,LOU-NH91; first compound 0.4 µM,0.81
same,relative viability,LOU-NH91; first compound 4 µM,0.749
same,relative viability,HCC-78; first compound 0.04 µM,0.65
same,relative viability,HCC-78; first compound 0.1265 µM,0.676
same,relative viability,HCC-78; first compound 0.4 µM,0.688
same,relative viability,HCC-78; first compound 4 µM,0.732
same,relative viability,RERF-LC-KJ; first compound 0.04 µM,0.711
same,relative viability,RERF-LC-KJ; first compound 0.1265 µM,0.61
same,relative viability,RERF-LC-KJ; first compound 0.4 µM,0.678
same,relative viability,RERF-LC-KJ; first compound 4 µM,0.556
same,relative viability,NCI-H1755; first compound 0.04 µM,0.708
same,relative viability,NCI-H1755; first compound 0.1265 µM,0.737
same,relative viability,NCI-H1755; first compound 0.4 µM,0.77
same,relative viability,NCI-H1755; first compound 4 µM,0.796
same,relative viability,UMC-11; first compound 0.04 µM,0.477
same,relative viability,UMC-11; first compound 0.1265 µM,0.62
same,relative viability,UMC-11; first compound 0.4 µM,0.728
same,relative viability,UMC-11; first compound 4 µM,0.513
same,relative viability,HCC-366; first compound 0.04 µM,0.347
same,relative viability,HCC-366; first compound 0.1265 µM,0.348
same,relative viability,HCC-366; first compound 0.4 µM,0.326
same,relative viability,HCC-366; first compound 4 µM,0.326
CC(C)Oc1cc(Nc2nc(N[C@@H](C)c3ccc(F)cn3)ncc2Cl)n[nH]1 [AZ23] + Nc1ncn([C@H]2C[C@H](O)[C@@H](CO)O2)c(=O)n1 [Decitabine] (partner 2 µM),relative viability,NCI-H1651; first compound 0.01 µM,0.621
same,relative viability,NCI-H1651; first compound 0.03162 µM,0.644
same,relative viability,NCI-H1651; first compound 0.3162 µM,0.618
same,relative viability,LC-2-ad; first compound 0.01 µM,1.01
same,relative viability,LC-2-ad; first compound 0.03162 µM,0.862
same,relative viability,LC-2-ad; first compound 0.3162 µM,0.782
same,relative viability,NCI-H1734; first compound 0.01 µM,0.532
same,relative viability,NCI-H1734; first compound 0.03162 µM,0.521
same,relative viability,NCI-H1734; first compound 0.3162 µM,0.482
same,relative viability,EPLC-272H; first compound 0.03162 µM,0.344
same,relative viability,EPLC-272H; first compound 0.3162 µM,0.389
same,relative viability,ChaGo-K-1; first compound 0.01 µM,0.567
same,relative viability,ChaGo-K-1; first compound 0.03162 µM,0.512
same,relative viability,ChaGo-K-1; first compound 0.3162 µM,0.519
same,relative viability,NCI-H2170; first compound 0.01 µM,0.482
same,relative viability,NCI-H2170; first compound 0.03162 µM,0.475
same,relative viability,NCI-H2170; first compound 0.3162 µM,0.483
same,relative viability,LU99A; first compound 0.01 µM,1.03
same,relative viability,LU99A; first compound 0.03162 µM,0.85
same,relative viability,LU99A; first compound 0.3162 µM,0.829
same,relative viability,NCI-H2405; first compound 0.01 µM,0.774
same,relative viability,NCI-H2405; first compound 0.03162 µM,0.805
same,relative viability,NCI-H2405; first compound 0.3162 µM,0.721
same,relative viability,NCI-H1395; first compound 0.03162 µM,0.713
same,relative viability,NCI-H1395; first compound 0.3162 µM,0.704
same,relative viability,NCI-H1793; first compound 0.01 µM,0.594
same,relative viability,NCI-H1793; first compound 0.03162 µM,0.559
same,relative viability,NCI-H1793; first compound 0.3162 µM,0.414
same,relative viability,ABC-1; first compound 0.01 µM,1
same,relative viability,ABC-1; first compound 0.03162 µM,1.22
same,relative viability,ABC-1; first compound 0.3162 µM,0.96
same,relative viability,NCI-H460; first compound 0.01 µM,0.489
same,relative viability,NCI-H460; first compound 0.03162 µM,0.514
same,relative viability,NCI-H460; first compound 0.3162 µM,0.55
same,relative viability,PC-3 [JPC-3]; first compound 0.01 µM,0.812
same,relative viability,PC-3 [JPC-3]; first compound 0.03162 µM,0.851
same,relative viability,PC-3 [JPC-3]; first compound 0.3162 µM,0.885
same,relative viability,NCI-H3122; first compound 0.01 µM,0.411
same,relative viability,NCI-H3122; first compound 0.03162 µM,0.455
same,relative viability,NCI-H3122; first compound 0.3162 µM,0.469
same,relative viability,NCI-H2087; first compound 0.01 µM,0.303
same,relative viability,NCI-H2087; first compound 0.03162 µM,0.265
same,relative viability,NCI-H2087; first compound 0.3162 µM,0.237
same,relative viability,NCI-H1944; first compound 0.01 µM,0.456
same,relative viability,NCI-H1944; first compound 0.03162 µM,0.46
same,relative viability,NCI-H1944; first compound 0.3162 µM,0.433
same,relative viability,LOU-NH91; first compound 0.01 µM,0.817
same,relative viability,LOU-NH91; first compound 0.03162 µM,0.888
same,relative viability,LOU-NH91; first compound 0.3162 µM,0.818
same,relative viability,HCC-78; first compound 0.01 µM,0.725
same,relative viability,HCC-78; first compound 0.03162 µM,0.777
same,relative viability,HCC-78; first compound 0.3162 µM,0.728
same,relative viability,RERF-LC-KJ; first compound 0.01 µM,0.783
same,relative viability,RERF-LC-KJ; first compound 0.03162 µM,0.74
same,relative viability,RERF-LC-KJ; first compound 0.3162 µM,0.817
same,relative viability,NCI-H1755; first compound 0.01 µM,0.844
same,relative viability,NCI-H1755; first compound 0.03162 µM,0.705
same,relative viability,NCI-H1755; first compound 0.3162 µM,0.697
same,relative viability,UMC-11; first compound 0.01 µM,0.562
same,relative viability,UMC-11; first compound 0.03162 µM,0.747
same,relative viability,UMC-11; first compound 0.3162 µM,0.587
same,relative viability,HCC-366; first compound 0.01 µM,0.319
same,relative viability,HCC-366; first compound 0.03162 µM,0.373
same,relative viability,HCC-366; first compound 0.3162 µM,0.333
